Columns and labels:
[1] = Directional release from hydrogel coated with PCL on one side, in 3% alginate gel; format: physicochemical
Protocol: Release of methylene blue from the hydrogel was simulated in a 3% alginate gel, cross-linked with calcium chloride to obtain a tissue-like consistency. Only the top part of the hydrogel was coated with PCL. The samples were inspected at 0, 1, 2, and 3 hours. Hydrogels were positioned vertically to eliminate any effect of gravity on the direction of release. […] The same experiment was performed with bupivacaine.

[2] = local anaesthetic; cited from earlier work

CCCCN1CCCCC1C(=O)Nc1c(C)cccc1C (stereo not drawn) [bupivacaine]
cumulative release ([1]; from the PCL-covered direction, after 8 hours): about 2 mg
time to reach cumulative release of about 2 mg ([1]; non-PCL covered direction): ≤ 1 h
duration of its effect [2]: approx. 8 hours
